pIC50: −log10 of the molar value.
These compounds were tested on M-NFS-60 cells (assay: M-NFS-60 cell in vitro assay (CCK, 48 h, M-CSF factor medium)). Conditions: M-NFS-60 cells; read-out: M-NFS-60cellassay IC50.
Assay type: cell-based
Protocol: To determine the inhibitory activity of compounds on M-NFS-60 cells.
• M-NFS-60 cell line (ATCC, Cat. No.: CRL-1838) • RPMI-1640 medium (Gibco, domestic subpackage, Cat. No.: C11875500BT) • Recombinant Mouse CSF1/M-CSF (Sino Biological Inc., Cat. No.: 51112-MNAH) • PAN/Serum (BioTECH, Cat. No.: P30-2602) • Trypsin/0.05% Trypsin-EDTA (Gibco, Cat. No.: 25300-062) • 0.4% Trypan Blue (Sigma, Cat. No.: T8154-20 ml) • Penicillin-Streptomycin (Hyclone, Cat. No.: SV30010) • DMSO (Solarbio, Cat. No.: D8371) • PBS (Solarbio, Cat. No.: P1020) • CCK (AbMole BioScience, Cat. No.: M4839-500Tests)
• 1) M-CSF factor stock solution: take 10 μg of powdered m-CSF factor, add 0.4 ml of saline, formulate 25 ug/ml and store at −80° C. • 2) M-CSF factor (25 ng/ml) medium: • 1640 (Gibco)+10% PAN+100×Penicillin-Streptomycin+100×M-CSF stock solution • 3) Complete medium: • 1640 (Gibco)+10% PAN+100×Penicillin-Streptomycin • 4) Compound preparation: 2-3 mg of the compound was added to DMSO to formulate a 30 mM stock solution, −80° C. refrigerator storage
• 1) Cell resuscitation: the frozen cells in the cryovial were thawed rapidly by shaking in a 37° C. water bath, then 4 mL of medium was added. After mixing evenly, they were centrifuged at 125×g for 5 min, and the supernatant was discarded. The cells were resuspended and transferred to the culture flasks, and were cultured in a 5% CO2 fully saturated humidity incubator. • 2) Cell passaging: M-NFS-60 cells are semi-suspension cells, which were collected directly in a 15 mL centrifuge tube, centrifuged at 125×g for 5 min. and the supernatant was discarded. The cells were resuspended and passaged into new culture flasks at a ratio of 1:5 to 1:10. • 3) After the newly resuscitated cells were passaged 1-2 times for cell stabilization, compound inhibition assays were started when the cells were in the logarithmic growth phase. • (a) Cell collection and counting: the same as the cell passaging step, centrifuge in two tubes, one tube with M-CSF factor medium to resuspend the cells, the other tube with complete medium to resuspend the cells. Take 10 μL of cell suspension in each tube, and count the cells by Tepan blue staining. • (b) Dilute the cell solution according to the concentration of inoculated cells respectively, the concentration of M-NFS-60 cells inoculated with factor was 5.56×10^4 cells/mL, and the concentration of inoculated without factor was 5×10^4 cells/mL. • (c) Seed plate: 384 well plate inoculated with M-NFS-60 cells, 36 uL/well, triplicate wells, the number of inoculated cells was equivalent to 2000 cells/well, set with blank control, factor free negative control, normal control, DMSO control and experimental wells. The cells were placed in a 5% CO2 fully saturated humidity incubator for 4 h. • (d) Sampling compounds: 96 well plates were used for compound preparation. The compound solution prepared in advance was diluted to corresponding gradient concentration with DMSO. An appropriate amount of the diluted solution in the previous step was added to an equal volume of factor containing medium. The 96 well plates were centrifuged at 1000 rpm for 5 min, which played the role of defoaming and spinning down droplets and condensation. Remove the 384 well plate from the incubator, add the diluted compound solution into each well sequentially, 4 μL/well; DMSO wells and normal wells were added with corresponding factor containing medium, 4 μL/well. Then it was put into CO2 incubator for 48 h. • (e) After incubation for 48 h, CCK was added to each well, 4 uL, and the plates were placed in the incubator for another 2 h, and then the OD (optical density) value at 450 nm was measured by microplate reader.
The IC50 values for each test compound were fitted using professional graphing and analysis software.

**Q.** With `Cc1cncc(CNc2cccc3c2CC[C@@H]3Nc2cncc(-c3cnn(C)c3)n2)c1` [Compound 60e] as the compound, how does the pIC50 read?
**A.** < 6.30

**Q.** `CN1CCc2nc(Nc3cccc4c3CC[C@@H]4Nc3cncc(Cl)c3)sc2C1` [Compound 42g] was tested. Which pIC50 did it give?
**A.** < 6.30

**Q.** With `Cn1cc(-c2cnc(N)c(O[C@H]3CCc4c(NC(=O)c5cccc(C(F)(F)F)c5)cccc43)c2)cn1` [Compound 3e] as the compound, how does the pIC50 read?
**A.** > 7.30

**Q.** With `Cn1cc(-c2cc(O[C@H]3CCc4c(C(=O)Nc5ccc(C(F)(F)F)cc5)cccc43)ccn2)cn1` [Compound 56, (S)-1-((2-(1-methyl-1H-pyrazol-4-yl)pyridin-4-yl)oxy)-N-(4-(trifluoromethyl)phenyl)-2,3-dihydro-1H-indene-4-carboxamide] as the compound, how does the pIC50 read?
**A.** < 6.30

**Q.** With `Cn1cc(-c2cncc(O[C@H]3CCc4c3ccc(F)c4C(=O)Nc3cccc(C4CC4)c3)c2)cn1` [Compound 53, (S)—N-(3-cyclopropylphenyl)-5-fluoro-1-((5-(1-methyl-1H-pyrazol-4-yl)pyridin-3-yl)oxy)-2,3-dihydro-1H-indene-4-carboxamide] as the compound, how does the pIC50 read?
**A.** 6.70 to 7.30

**Q.** `Cc1cccc(C(=O)Nc2cccc3c2CC[C@@H]3Nc2cncc(N3CCN(C)CC3)n2)c1` [Compound 31, (S)-3-methyl-N-(1-((6-(4-methylpiperazin-1-yl)pyrazin-2-yl)amino)-2,3-dihydro-1H-inden-4-yl)benzamide] was tested. Which pIC50 did it give?
**A.** 6.30 to 6.70

**Q.** How did the pIC50 turn out when `Cc1ccc(C(=O)Nc2cccc3c2CC[C@@H]3Oc2cc(-c3cnn(C)c3)cnc2N)cc1C` [Compound 3f] was run?
**A.** > 7.30

**Q.** How did the pIC50 turn out when `Cc1cccc(C(=O)Nc2cccc3c2CCC3Nc2cncc(Br)c2)c1` (stereo not shown) [Compound 8d, N-(1-((5-bromopyridin-3-yl)amino)-2,3-dihydro-1H-inden-4-yl)-3-methylbenzamide] was run?
**A.** 6.70 to 7.30

**Q.** How did the pIC50 turn out when `COCC(C)(C)c1cc(Nc2cccc3c2CC[C@@H]3Nc2cnc3cnn(C)c3c2)no1` [Compound 91c] was run?
**A.** > 7.30

**Q.** With `CN(c1cnc2cnn(C)c2c1)[C@H]1CCc2c(Nc3cc(C(C)(C)C)on3)cccc21` [Compound 94, (S)—N^4-(5-(tert-butyl)isoxazol-3-yl)-N^1-methyl-N^1-(1-methyl-1H-pyrazolo[4,3-b]pyridin-6-yl)-2,3-dihydro-1H-indene-1,4-diamine] as the compound, how does the pIC50 read?
**A.** 6.30 to 6.70

**Q.** `O=C(Nc1cccc(C2CC2)c1)c1cccc2c1CC[C@@H]2Nc1cnc2cn[nH]c2c1` [Compound 97, (S)-1-((1H-pyrazolo[4,3-b]pyridin-6-yl)amino)-N-(3-cyclopropylphenyl)-2,3-dihydro-1H-indene-4-carboxamide] was tested. Which pIC50 did it give?
**A.** > 7.30

**Q.** With `Cn1cc2ncc(N[C@H]3CCc4c(Nc5ncc(C(C)(C)C)s5)cccc43)cc2n1` [Compound 91h] as the compound, how does the pIC50 read?
**A.** > 7.30

**Q.** How did the pIC50 turn out when `Cn1cc2ncc(O[C@H]3CCc4c(C(=O)Nc5ccccc5F)cccc43)cc2n1` [Compound 76au] was run?
**A.** > 7.30

**Q.** How did the pIC50 turn out when `Cc1csc(Nc2cccc3c2CC[C@@H]3Nc2cncc(-c3cnn(C)c3)n2)n1` [Compound 36a] was run?
**A.** < 6.30

**Q.** With `COc1cc(NC(=O)c2cccc3c2CC[C@@H]3Oc2cnc3cnn(C)c3c2)ccc1F` [Compound 76ad] as the compound, how does the pIC50 read?
**A.** > 7.30

**Q.** `Cn1cc2ncc(N[C@H]3CCc4c(Nc5cc(C6(C)CCC6)on5)cccc43)cc2n1` [Compound 91k] was tested. Which pIC50 did it give?
**A.** > 7.30

**Q.** `CN(C)Cc1cccc(NC(=O)c2cccc3c2CC[C@@H]3Oc2cc(-c3cnn(C)c3)cnc2N)c1` [Compound 5e] was tested. Which pIC50 did it give?
**A.** > 7.30

**Q.** `Cc1cncc(NC(=O)c2cccc3c2CC[C@@H]3Oc2cnc3cn(C)nc3c2)c1` [Compound 76ba] was tested. Which pIC50 did it give?
**A.** > 7.30

**Q.** How did the pIC50 turn out when `CN1CCN(Cc2ccc(C(=O)Nc3cccc4c3CC[C@@H]4Nc3cncc(-c4cnn(C)c4)n3)cc2)CC1` [Compound 25f] was run?
**A.** 6.70 to 7.30

**Q.** With `Cn1cc(-c2cncc(N[C@H]3CCc4c(NC(=O)NC5CCC(F)(F)CC5)cccc43)n2)cn1` [Compound 65b] as the compound, how does the pIC50 read?
**A.** 6.70 to 7.30

**Q.** With `Cc1cccc(NCc2cccc3c2CC[C@@H]3Nc2cncc(-c3cnn(C)c3)n2)c1` [Compound 59d] as the compound, how does the pIC50 read?
**A.** 6.30 to 6.70

**Q.** `Cn1cc(-c2cncc(N[C@H]3CCc4c(NC(=O)NC5CCCCC5)cccc43)n2)cn1` [Compound 65a] was tested. Which pIC50 did it give?
**A.** > 7.30

**Q.** With `Cn1cc(-c2cncc(N[C@H]3CCc4c(NC(=O)OC5CCCCC5)cccc43)n2)cn1` [Compound 65c] as the compound, how does the pIC50 read?
**A.** > 7.30

**Q.** With `Cn1cc(-c2cnc(N)c(O[C@H]3CCc4c(NC(=O)c5cccc(CN6CCCC6)c5)cccc43)c2)cn1` [Compound 3i] as the compound, how does the pIC50 read?
**A.** < 6.30

**Q.** `Cn1cc(-c2cncc(O[C@H]3CCc4c(C(=O)Nc5cncc(F)c5)cccc43)c2)cn1` [Compound 19t] was tested. Which pIC50 did it give?
**A.** 6.70 to 7.30

**Q.** `COc1ccc(NCc2cccc3c2CC[C@@H]3Nc2cncc(-c3cnn(C)c3)c2)cc1` [Compound 59a] was tested. Which pIC50 did it give?
**A.** 6.30 to 6.70

**Q.** With `COc1cccc(NC(=O)c2cccc3c2CC[C@@H]3N(C)c2cnc3cn(C)nc3c2)c1F` [Compound 80m] as the compound, how does the pIC50 read?
**A.** > 7.30

**Q.** `Cn1cc2ncc(O[C@H]3CCc4c(C(=O)Nc5cccc(C6CC6)c5)cccc43)cc2n1` [Compound 76af] was tested. Which pIC50 did it give?
**A.** > 7.30

**Q.** With `Cn1cc(-c2cnc(N)c(O[C@H]3CCc4c(C(=O)Nc5cccc(CN6CCCCC6)c5)cccc43)c2)cn1` [Compound 5b] as the compound, how does the pIC50 read?
**A.** 6.70 to 7.30

**Q.** `Cn1cc2ncc(N[C@H]3CCc4c(Nc5noc(C67CC(C6)C7)n5)cccc43)cc2n1` [Compound 93q] was tested. Which pIC50 did it give?
**A.** > 7.30

**Q.** How did the pIC50 turn out when `Cc1cc(NC(=O)c2cccc3c2CC[C@@H]3N(C)c2cnc3cnn(C)c3c2)ccc1F` [Compound 80q] was run?
**A.** > 7.30

**Q.** How did the pIC50 turn out when `CN(c1cnc2cnn(C)c2c1)[C@H]1CCc2c(C(=O)Nc3cncc(Cl)c3)cccc21` [Compound 80e, (S)—N-(5-chloropyridin-3-yl)-1-(methyl (1-methyl-1H-pyrazolo[4,3-b]pyridin-6-yl)amino)-2,3-dihydro-1H-indene-4-carboxamide] was run?
**A.** > 7.30

**Q.** `Cn1cc(-c2cncc(N[C@H]3CCc4c(NC(=O)c5ccc6c(c5)OC(F)(F)O6)cccc43)n2)cn1` [Compound 24, (S)-2,2-difluoro-N-(1-((6-(1-methyl-1H-pyrazol-4-yl)pyrazin-2-yl)amino)-2,3-dihydro-1H-inden-4-yl)benzo[d][1,3]dioxole-5-carboxamide] was tested. Which pIC50 did it give?
**A.** > 7.30

**Q.** With `Cn1cc(-c2cncc(NC3CCc4c(Nc5cc(C(C)(C)C)on5)cccc43)c2)cn1` (stereo not shown) [Compound 48, N^4-(5-(tert-butyl)isoxazol-3-yl)-N^1-(5-(1-methyl-1H-pyrazol-4-yl)pyridin-3-yl)-2,3-dihydro-1H-indene-1,4-diamine] as the compound, how does the pIC50 read?
**A.** > 7.30

**Q.** With `CN(c1cnc2cnn(C)c2c1)[C@H]1CCc2c(C(=O)Nc3cccc(C4CC4)c3)cccc21` [Compound 80a] as the compound, how does the pIC50 read?
**A.** > 7.30

**Q.** With `Cn1cc(-c2cncc(N[C@H]3CCc4c(C(=O)Nc5cccc(CN6CCCC6)c5)cccc43)c2)cn1` [Compound 14av] as the compound, how does the pIC50 read?
**A.** 6.70 to 7.30

**Q.** With `CN(c1cnc2cn(C)nc2c1)[C@H]1CCc2c(C(=O)Nc3ccc4c(c3)OC(F)(F)O4)cccc21` [Compound 80u] as the compound, how does the pIC50 read?
**A.** > 7.30

**Q.** How did the pIC50 turn out when `Cn1ncc2ccc(N[C@H]3CCc4c(C(=O)Nc5cccc(C6CC6)c5)cccc43)cc21` [Compound 74b] was run?
**A.** < 6.30

**Q.** `Cn1cc2ncc(N[C@H]3CCc4c(CNc5cccc(F)c5)cccc43)cc2n1` [Compound 96c] was tested. Which pIC50 did it give?
**A.** < 6.30

**Q.** With `Cn1cc(-c2cncc(NC3CC(F)c4c(NC(=O)c5ccc(C(F)(F)F)cc5)cccc43)c2)cn1` (stereo not shown) [Compound 71, N-(3-fluoro-1-((5-(1-methyl-1H-pyrazol-4-yl)pyridin-3-yl)amino)-2,3-dihydro-1H-inden-4-yl)-4-(trifluoromethyl)benzamide] as the compound, how does the pIC50 read?
**A.** 6.30 to 6.70

**Q.** `Cn1cc2ncc(N[C@H]3CCc4c(Nc5noc(C6(C(F)(F)F)CCC6)n5)cccc43)cc2n1` [Compound 93h] was tested. Which pIC50 did it give?
**A.** > 7.30

**Q.** How did the pIC50 turn out when `CN(C)CCOc1cccc(NC(=O)c2cccc3c2CC[C@@H]3Oc2cncc(-c3cnn(C)c3)c2)c1` [Compound 19r] was run?
**A.** 6.70 to 7.30

**Q.** `COc1cc(NC(=O)c2cccc3c2CC[C@@H]3Oc2cnc3cn(C)nc3c2)ccc1F` [Compound 76aq] was tested. Which pIC50 did it give?
**A.** > 7.30

From patent US20260125359A1, “HETEROARYL COMPOUNDS AS MULTI-TARGET PROTEIN KINASE INHIBITORS” (FUJIAN HAIXI PHARMACEUTICALS CO., LTD., priority 2023, published 2026)
